Active and inactive are the calls of the source.
Columns and labels:
Kallikrein-7 = Kallikrein-7 (Homo sapiens, UniProt P49862); assay: Fluorescence Intensity-based biochemical primary high throughput dose response assay to identify activators of kallikrein-7 (K7) zymogen.
Albumin = Albumin (Bos taurus, UniProt P02769); assay: Counterscreen for inhibitors of T-cell receptor (TCR)-CD3 interaction: Fluorescence-based biochemical high throughput dose response assay to identify inhibitors of T-cell receptor (TCR)-CD3 interaction using a TAMRA-labeled BSA probe.; format: functional
Albumin, sequence (P02769 whole entry): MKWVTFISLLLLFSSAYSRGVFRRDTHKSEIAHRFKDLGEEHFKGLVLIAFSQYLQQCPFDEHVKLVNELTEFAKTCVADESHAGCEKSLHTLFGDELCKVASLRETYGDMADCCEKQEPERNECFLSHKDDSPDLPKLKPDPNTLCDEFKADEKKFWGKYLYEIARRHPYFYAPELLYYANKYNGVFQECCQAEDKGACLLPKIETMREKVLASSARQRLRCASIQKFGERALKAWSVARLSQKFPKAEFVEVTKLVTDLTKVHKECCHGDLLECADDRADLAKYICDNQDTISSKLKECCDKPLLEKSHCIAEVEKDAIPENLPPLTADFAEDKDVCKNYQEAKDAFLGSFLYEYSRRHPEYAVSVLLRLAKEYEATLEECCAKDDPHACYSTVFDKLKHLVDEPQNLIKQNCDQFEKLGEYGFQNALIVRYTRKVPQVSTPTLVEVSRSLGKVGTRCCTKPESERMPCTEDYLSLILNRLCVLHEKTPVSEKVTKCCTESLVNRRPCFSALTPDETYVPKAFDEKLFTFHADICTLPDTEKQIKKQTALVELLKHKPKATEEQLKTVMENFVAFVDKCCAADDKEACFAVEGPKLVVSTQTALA

[1] = human group III sPLA2 inhibitors, dose response, biochemical, QFRET, IC50 (AID 743457);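 also: green fluorescence rise as the enzyme cleaves BODIPY PC-A2 in liposomes; potency for inhibition of the enzyme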
[2] = non-specific cell cytotoxicity, dose response, cytotoxicity control for PAX8 inhibitor project, plate reader, dry powder samples (AID 743021); format: functional, cell-based
Paired box protein Pax-8 = Paired box protein Pax-8 (Homo sapiens, UniProt Q06710); assay: inhibitors of PAX8-driven TPO luciferase reporter, dose response, RMG-I cells, cherry-pick (AID 687027); format: functional, cell-based;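 also: luciferase reporter driven by Pax8 target thyroperoxidase promoter measured by SteadyGlo luminescence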
Paired box protein Pax-8, sequence (Q06710 whole entry): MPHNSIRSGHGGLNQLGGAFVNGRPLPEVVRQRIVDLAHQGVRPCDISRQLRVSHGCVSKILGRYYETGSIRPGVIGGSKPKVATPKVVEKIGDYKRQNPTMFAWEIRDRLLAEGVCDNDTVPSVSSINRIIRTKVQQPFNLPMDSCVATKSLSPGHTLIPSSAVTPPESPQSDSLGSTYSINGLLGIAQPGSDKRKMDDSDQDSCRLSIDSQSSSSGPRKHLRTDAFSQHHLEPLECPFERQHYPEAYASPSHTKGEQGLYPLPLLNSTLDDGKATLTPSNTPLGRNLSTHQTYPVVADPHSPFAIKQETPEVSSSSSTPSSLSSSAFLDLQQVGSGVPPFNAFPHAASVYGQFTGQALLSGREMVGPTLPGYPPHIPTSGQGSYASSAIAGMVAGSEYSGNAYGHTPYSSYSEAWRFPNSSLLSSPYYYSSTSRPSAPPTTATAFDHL

cells [3] = format: functional, cell-based
[4] = target: T1, Zinc finger protein mex-5 (Caenorhabditis elegans, UniProt Q9XUB2); assay: MEX-5/TCR-2 RNA interaction inhibitors, dose response, biochemical, C. elegans, fluorescence polarization (AID 1960)
T1 sequence (Q9XUB2 whole entry): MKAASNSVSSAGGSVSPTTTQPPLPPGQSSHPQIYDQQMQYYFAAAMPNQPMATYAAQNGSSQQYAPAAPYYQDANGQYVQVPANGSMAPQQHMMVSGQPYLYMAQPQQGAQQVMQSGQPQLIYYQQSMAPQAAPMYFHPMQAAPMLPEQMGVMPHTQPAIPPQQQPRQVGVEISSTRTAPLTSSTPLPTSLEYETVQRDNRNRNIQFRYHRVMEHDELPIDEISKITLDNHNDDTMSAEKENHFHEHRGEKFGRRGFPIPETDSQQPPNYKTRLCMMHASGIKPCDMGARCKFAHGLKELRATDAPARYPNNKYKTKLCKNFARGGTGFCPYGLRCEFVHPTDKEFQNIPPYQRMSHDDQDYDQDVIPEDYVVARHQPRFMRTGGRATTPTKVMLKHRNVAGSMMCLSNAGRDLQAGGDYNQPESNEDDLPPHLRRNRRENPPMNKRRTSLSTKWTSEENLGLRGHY

[5] = target: T2, RNA-binding protein pos-1 (Caenorhabditis elegans, UniProt G5EF15); assay: inhibitors of POS-1/mex-3 RNA binding, dose response, biochemical, fluorescence polarization (AID 1964);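 also: purified POS-1 fused to maltose binding protein made in E. coli; potency of compounds blocking POS-1 binding to fluorescent RNA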
T2 sequence (G5EF15 whole entry): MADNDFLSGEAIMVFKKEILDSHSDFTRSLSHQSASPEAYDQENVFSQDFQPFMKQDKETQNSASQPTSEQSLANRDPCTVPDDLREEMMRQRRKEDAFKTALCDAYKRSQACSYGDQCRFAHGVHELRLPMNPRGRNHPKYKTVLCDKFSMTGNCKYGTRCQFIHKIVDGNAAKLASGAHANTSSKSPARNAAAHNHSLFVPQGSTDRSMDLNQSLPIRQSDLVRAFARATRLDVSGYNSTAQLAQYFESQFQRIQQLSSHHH

[6] = control 3'UTR Renilla luciferase suppression, dose response, counter-screen for Shn3 inhibitor project, cell-based, Clone20-Shn3RL, cherry-picked (AID 624133); format: functional
[7] = target: FAD-linked sulfhydryl oxidase ALR (Homo sapiens, UniProt P55789); assay: inhibitors of human ALR sulfhydryl oxidase, dose response, biochemical, H2O2 detection, luminescence, cherry-pick (AID 493248)
FAD-linked sulfhydryl oxidase ALR, sequence (P55789 whole entry): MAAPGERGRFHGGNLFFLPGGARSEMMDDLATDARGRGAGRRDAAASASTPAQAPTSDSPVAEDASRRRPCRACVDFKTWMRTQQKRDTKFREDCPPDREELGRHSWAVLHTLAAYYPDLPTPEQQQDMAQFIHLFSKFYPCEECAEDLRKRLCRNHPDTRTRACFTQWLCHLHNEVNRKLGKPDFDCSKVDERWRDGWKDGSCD

cells [8] = format: functional, cell-based; remark: listed apart in the source
Large T antigen = Large T antigen (Simian virus 40, UniProt P03070); format: functional, Betapolyomavirus macacae;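 also: Confirmatory-stage PubChem screen for compounds that inhibit SV40 T antigen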
Large T antigen, sequence (P03070 whole entry): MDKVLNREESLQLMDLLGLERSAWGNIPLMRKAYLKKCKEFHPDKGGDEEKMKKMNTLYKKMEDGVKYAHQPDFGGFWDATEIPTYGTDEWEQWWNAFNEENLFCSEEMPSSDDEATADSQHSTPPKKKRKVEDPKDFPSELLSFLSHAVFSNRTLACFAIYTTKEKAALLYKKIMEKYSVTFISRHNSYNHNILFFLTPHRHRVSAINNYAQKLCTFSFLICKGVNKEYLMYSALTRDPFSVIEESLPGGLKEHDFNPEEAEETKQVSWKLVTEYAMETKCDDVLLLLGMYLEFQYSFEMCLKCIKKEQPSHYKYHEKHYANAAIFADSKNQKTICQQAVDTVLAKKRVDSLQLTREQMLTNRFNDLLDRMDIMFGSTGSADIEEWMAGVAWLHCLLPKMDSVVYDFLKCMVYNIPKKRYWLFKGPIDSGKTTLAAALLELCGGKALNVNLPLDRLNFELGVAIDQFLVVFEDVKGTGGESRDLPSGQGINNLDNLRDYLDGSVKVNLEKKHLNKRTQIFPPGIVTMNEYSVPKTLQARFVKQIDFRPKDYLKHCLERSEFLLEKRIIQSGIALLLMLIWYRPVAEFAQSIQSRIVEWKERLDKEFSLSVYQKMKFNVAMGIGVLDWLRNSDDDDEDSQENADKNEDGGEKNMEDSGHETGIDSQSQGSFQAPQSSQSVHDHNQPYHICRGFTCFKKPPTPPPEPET

[9] = Shn3 3'UTR reporter inhibitors, dose response, cell-based, Clone20 osteoblasts, firefly luciferase, cherry-picked (AID 624132); format: functional;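 also: firefly luciferase luminescence from reporter carrying the Shn3 3'UTR in osteoblasts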
[10] = cytotoxicity in OVCAR8 ovarian cancer cells, dose response, PAX8 project, cell-based, plate reader, dry powder samples (AID 743197); format: functional; conditions: OVCAR-8
[11] = A2780 ovarian cancer cell cytotoxicity, dose response, cytotoxicity control, plate reader, dry powder samples (AID 743046); format: functional, cell-based
[12] = P. falciparum ATP4 D1247Y mutant growth inhibitors, dose response, NITD609-resistant line, SYBR Green, dry powder (AID 1159571); format: functional, cell-based;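 also: parasites synchronized at ring stage by sorbitol before testing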
[13] = P. falciparum 3D7-ScDHODH growth inhibitors, dose response, SYBR Green, dry powder samples (AID 1159570); format: functional, cell-based;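 also: parasite growth measured after 72 hours of compound exposure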
[14] = P. falciparum Dd2 growth inhibitors, dose response, SYBR Green, dry powder samples (AID 1159566); format: functional, cell-based;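 also: potency for growth inhibition with lower SYBR green DNA signal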
[15] = HepG2 cell cytotoxicity, dose response, cytotoxicity control, plate reader, dry powder samples (AID 1159569); format: functional, cell-based;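 also: inhibitor potency with signal falling toward the positive control level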
[16] = P. falciparum Dd2 growth inhibitors, dose response, SYBR Green, cherry-picked samples (AID 1159567); format: functional, cell-based
[17] = MC4R antagonists, dose response, counter-screen for LGR2 antagonist project, cell-based, plate reader, cherry pick (AID 743444); format: functional;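 also: transfected HEK 293 cells stimulated with alpha-MSH peptide; potency of inhibitors of the alpha-MSH evoked signal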
[18] = HEK293 cell cytotoxicity, dose response, cytotoxicity control, plate reader, cherry-picked samples (AID 743446); format: functional, cell-based
[19] = LGR2 antagonists, dose response, cell-based, HEK293, CRE-luciferase reporter, cherry pick, set 2 (AID 743343); format: functional;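 also: transfected cells were stimulated with diluted bursicon conditioned medium after compound addition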
[20] = target: T3, Sentrin-specific protease 8 (Homo sapiens, UniProt Q96LD8); format: functional
T3 sequence (Q96LD8 whole entry): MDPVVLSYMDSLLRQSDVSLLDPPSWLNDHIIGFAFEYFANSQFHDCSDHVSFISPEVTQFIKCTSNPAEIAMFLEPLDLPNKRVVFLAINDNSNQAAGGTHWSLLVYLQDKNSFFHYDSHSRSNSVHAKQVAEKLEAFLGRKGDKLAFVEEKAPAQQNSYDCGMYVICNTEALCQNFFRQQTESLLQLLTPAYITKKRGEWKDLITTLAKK

[21] = target: T4, Sentrin-specific protease 6 (Homo sapiens, UniProt Q9GZR1); format: functional;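 also: Luminescence-based dose-response confirmatory assay of SENP6 inhibition, following up an ultra-high-throughput screen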
T4 sequence (Q9GZR1 whole entry): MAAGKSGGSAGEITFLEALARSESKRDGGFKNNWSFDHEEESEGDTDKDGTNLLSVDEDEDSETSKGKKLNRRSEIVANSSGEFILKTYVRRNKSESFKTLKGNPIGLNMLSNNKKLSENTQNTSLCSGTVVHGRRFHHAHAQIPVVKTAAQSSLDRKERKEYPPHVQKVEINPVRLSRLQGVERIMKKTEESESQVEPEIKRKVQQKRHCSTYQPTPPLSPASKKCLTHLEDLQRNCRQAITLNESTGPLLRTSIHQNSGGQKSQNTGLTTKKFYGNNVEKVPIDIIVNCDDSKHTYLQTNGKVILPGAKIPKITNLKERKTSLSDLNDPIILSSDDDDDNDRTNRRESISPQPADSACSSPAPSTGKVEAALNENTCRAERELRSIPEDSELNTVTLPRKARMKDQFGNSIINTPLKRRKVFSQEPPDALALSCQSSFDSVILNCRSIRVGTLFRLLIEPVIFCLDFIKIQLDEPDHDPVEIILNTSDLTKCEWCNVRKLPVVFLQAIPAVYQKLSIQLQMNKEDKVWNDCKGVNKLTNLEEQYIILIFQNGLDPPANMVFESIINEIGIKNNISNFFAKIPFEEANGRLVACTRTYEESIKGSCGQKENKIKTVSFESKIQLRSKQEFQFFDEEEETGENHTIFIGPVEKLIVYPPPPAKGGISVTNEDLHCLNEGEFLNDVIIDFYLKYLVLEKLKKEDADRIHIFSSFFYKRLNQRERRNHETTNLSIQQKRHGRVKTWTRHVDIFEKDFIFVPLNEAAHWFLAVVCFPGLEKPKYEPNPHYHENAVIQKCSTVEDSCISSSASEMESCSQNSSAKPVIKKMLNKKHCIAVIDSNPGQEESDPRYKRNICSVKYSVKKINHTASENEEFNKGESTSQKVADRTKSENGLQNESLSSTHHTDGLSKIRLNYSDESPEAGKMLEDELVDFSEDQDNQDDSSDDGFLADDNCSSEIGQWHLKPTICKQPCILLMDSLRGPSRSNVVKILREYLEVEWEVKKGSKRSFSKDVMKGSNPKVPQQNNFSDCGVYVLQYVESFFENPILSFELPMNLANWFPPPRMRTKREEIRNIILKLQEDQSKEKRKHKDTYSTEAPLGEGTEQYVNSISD

[22] = target: T5, Sentrin-specific protease 7 (Homo sapiens, UniProt Q9BQF6); format: functional;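 also: Luminescence-based dose-response confirmation of ultra-high-throughput screening hits, measuring inhibition of SENP7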
T5 sequence (Q9BQF6 whole entry): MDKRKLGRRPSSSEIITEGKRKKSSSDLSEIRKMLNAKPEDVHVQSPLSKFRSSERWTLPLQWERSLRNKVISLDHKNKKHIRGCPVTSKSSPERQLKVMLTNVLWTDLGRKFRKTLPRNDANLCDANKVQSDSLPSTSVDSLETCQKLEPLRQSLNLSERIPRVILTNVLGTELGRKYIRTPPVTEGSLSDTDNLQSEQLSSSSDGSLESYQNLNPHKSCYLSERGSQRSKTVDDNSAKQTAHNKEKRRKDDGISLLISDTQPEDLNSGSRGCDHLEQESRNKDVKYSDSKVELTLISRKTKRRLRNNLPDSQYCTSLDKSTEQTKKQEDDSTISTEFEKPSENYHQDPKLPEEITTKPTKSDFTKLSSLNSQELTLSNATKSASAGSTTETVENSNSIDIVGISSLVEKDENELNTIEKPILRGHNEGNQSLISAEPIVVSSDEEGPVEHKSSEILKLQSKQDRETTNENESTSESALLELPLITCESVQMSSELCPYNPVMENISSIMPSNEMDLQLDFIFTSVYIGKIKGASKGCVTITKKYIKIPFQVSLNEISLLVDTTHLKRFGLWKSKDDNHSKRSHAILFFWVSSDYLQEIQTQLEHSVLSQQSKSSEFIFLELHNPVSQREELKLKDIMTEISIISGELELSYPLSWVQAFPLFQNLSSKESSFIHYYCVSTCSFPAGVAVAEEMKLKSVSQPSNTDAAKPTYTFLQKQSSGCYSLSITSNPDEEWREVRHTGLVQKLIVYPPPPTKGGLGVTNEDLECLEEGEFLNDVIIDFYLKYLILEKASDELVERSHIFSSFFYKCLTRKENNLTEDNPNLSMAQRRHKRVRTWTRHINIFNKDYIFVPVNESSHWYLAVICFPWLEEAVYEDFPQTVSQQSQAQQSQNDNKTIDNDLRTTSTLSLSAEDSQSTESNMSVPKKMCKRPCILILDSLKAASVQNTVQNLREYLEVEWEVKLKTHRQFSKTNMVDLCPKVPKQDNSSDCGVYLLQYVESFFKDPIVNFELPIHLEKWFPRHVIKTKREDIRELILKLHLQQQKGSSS

[23] = target: T3, Sentrin-specific protease 8; format: functional; remark: listed apart in the source
Caspase-3 = target: T6, Caspase-3 (Homo sapiens, UniProt P42574); format: functional;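 also: Dose-response selectivity test against caspase-3 for candidate inhibitors of sentrin-specific proteases (SENPs)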
T6 sequence (P42574 whole entry): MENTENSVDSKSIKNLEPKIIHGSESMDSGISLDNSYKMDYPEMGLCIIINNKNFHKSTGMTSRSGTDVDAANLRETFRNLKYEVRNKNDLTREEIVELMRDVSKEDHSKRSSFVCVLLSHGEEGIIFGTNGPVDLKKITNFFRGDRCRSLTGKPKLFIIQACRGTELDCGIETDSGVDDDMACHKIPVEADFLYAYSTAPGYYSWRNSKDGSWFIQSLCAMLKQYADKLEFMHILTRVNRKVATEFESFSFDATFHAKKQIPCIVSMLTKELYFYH

Caspase-6 = target: T7, Caspase-6 (Homo sapiens, UniProt P55212); assay: human caspase-6 inhibitors, dose response, biochemical, VEID-R110 fluorescence, cherry-pick (AID 720632)
T7 sequence (P55212 whole entry): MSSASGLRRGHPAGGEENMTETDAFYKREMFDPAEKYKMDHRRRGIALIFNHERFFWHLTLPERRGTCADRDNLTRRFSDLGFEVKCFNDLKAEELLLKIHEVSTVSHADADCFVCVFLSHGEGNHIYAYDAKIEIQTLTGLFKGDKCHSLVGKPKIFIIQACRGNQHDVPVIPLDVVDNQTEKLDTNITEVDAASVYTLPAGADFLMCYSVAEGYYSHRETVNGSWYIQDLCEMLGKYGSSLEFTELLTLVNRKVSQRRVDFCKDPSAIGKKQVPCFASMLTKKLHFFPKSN

[24] = target: T3, Sentrin-specific protease 8; format: functional; remark: listed apart in the source

Kallikrein-7, sequence (P49862 whole entry): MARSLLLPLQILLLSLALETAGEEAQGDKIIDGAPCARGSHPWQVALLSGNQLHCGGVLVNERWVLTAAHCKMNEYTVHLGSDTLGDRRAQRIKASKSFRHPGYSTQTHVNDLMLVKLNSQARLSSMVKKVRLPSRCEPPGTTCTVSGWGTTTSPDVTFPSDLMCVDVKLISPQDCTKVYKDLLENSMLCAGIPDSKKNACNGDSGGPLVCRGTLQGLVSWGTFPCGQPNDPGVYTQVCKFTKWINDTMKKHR

## CCOC(=O)N1CCN(C(=O)c2ccc3nc4ccsc4c(=O)n3c2)CC1
Kallikrein-7
  EC50: 10.6 µM (inactive)

## O=C(NNC(=O)c1ccc2ccccc2c1O)Nc1ccc(F)cc1
Albumin
  IC50: > 94.1 µM (inactive)
[1]
  IC50: > 122 µM (inactive)

## CCOCCCn1/c(=N\C(=O)c2ccco2)c(C(=O)OCC)cc2c(=O)n3cccc(C)c3nc21
Kallikrein-7
  EC50: 38.7 µM (inactive)

## Oc1nc2ccccc2n1C1CCN(C(c2cccs2)c2nnnn2-c2ccc3c(c2)OCCO3)CC1 (stereo not given)
[2]
  AC50: 54.2 µM (active)
Paired box protein Pax-8
  AC50: 1.78 µM (active)

## Cc1ccn2cc(-c3ccc(O)c(O)c3)nc2c1
Albumin
  IC50: > 94.1 µM (inactive)
Cells [3]
  EC50: > 350 µM (not active)
[4]
  EC50: 6.88 µM (active)
[5]
  EC50: 38 µM (active)
[6]
  AC50: 13 µM (active)
[7]
  AC50: 0.558 µM (active)
Cells [8]
  EC50: 6.58 µM (active)
Large T antigen
  IC50: 12.9 µM (active)
[9]
  AC50: 2.44 µM (active)

## CN1C(=O)c2cc(NC(=O)c3cccc(Cl)c3)ccc2OC[C@@H]2O[C@H](CC(=O)NC3CCCCC3)CC[C@@H]21
[10]
  AC50: 51.9 µM (active)
Paired box protein Pax-8
  AC50: 7.9 µM (active)
[11]
  AC50: 1.19 µM (active)

## C[C@H](CO)N1C[C@H](C)[C@@H](CN(C)C(=O)c2ccccc2F)Oc2ncc(C#Cc3cccc(F)c3)cc2C1=O
[12]
  AC50: 2.1 µM (active)
[13]
  AC50: 3.17 µM (active)
[14]
  AC50: 1.63 µM (active)
[15]
  AC50: 39.9 µM (active)
[16]
  AC50: 1.97 µM (active)

## Cc1ccc(-c2nc(-c3ccccn3)no2)cc1[N+](=O)[O-]
[17]
  AC50: 14.9 µM (active)
[18]
  AC50: > 52 µM (inactive)
[19]
  AC50: 4.31 µM (active)

## Cc1ccccc1N1C(=O)Cc2ccccc2C1=O
[20]
  IC50: 3.22 µM (active)
[21]
  IC50: 8.06 µM (active)
[22]
  IC50: 23.8 µM (active)
[23]
  IC50: > 100 µM (inactive)
Caspase-3
  IC50: 3.55 µM (active)
Caspase-6
  AC50: 27.4 µM (active)
[24]
  IC50: 45.7 µM (active)

## Cc1ccccc1C(=O)NNC(=S)NC(=O)c1cccnc1
Albumin
  IC50: > 94.1 µM (inactive)

## CC(=O)Nc1ccc(S(=O)(=O)[N-]c2nc3ccccc3nc2-[n+]2ccc(NC(=O)c3ccccc3)cc2)cc1
Kallikrein-7
  EC50: > 69.5 µM (inactive)
